{"source": "PubChem BioAssay AID2060485", "about": "(Molecular Pharmacology Branch, DTP, NCI, 2025)", "test_system": "A375 multi-cell spheroids with HUVEC/MSC, viability", "assay": "Anticancer human tumor A375 cell line growth inhibition [GQUAD];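 as to all read-outs here: spheroids exposed to compounds for seven days before readout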", "details": "for IC50: curve of first compound; for viability, T/C: stronger effect = lower value", "procedure,_shortened": "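Multi-cell-type spheroids of tumor cells with HUVEC and mesenchymal stem cells, treated with drug combinations. Concentrations descend in half-log steps from near clinical Cmax, or from 10 microM where Cmax is unknown; viability read-out.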", "key": {"[1]": {"details": "second compound 0.0316 µM, first compound 0.0316 µM"}, "[2]": {"details": "second compound 0.0316 µM, first compound 0.1 µM"}, "[3]": {"details": "second compound 0.0316 µM, first compound 0.316 µM"}, "[4]": {"details": "second compound 0.0316 µM, first compound 1 µM"}, "[5]": {"details": "second compound 0.0316 µM, first compound 3.16 µM"}, "[6]": {"details": "second compound 0.0316 µM, first compound 10 µM"}, "[7]": {"details": "second compound 0.1 µM, first compound 0.0316 µM"}, "[8]": {"details": "second compound 0.1 µM, first compound 0.1 µM"}, "[9]": {"details": "second compound 0.1 µM, first compound 0.316 µM"}, "[10]": {"details": "second compound 0.1 µM, first compound 1 µM"}, "[11]": {"details": "second compound 0.1 µM, first compound 3.16 µM"}, "[12]": {"details": "second compound 0.1 µM, first compound 10 µM"}, "[13]": {"details": "second compound 0.316 µM, first compound 0.0316 µM"}, "[14]": {"details": "second compound 0.316 µM, first compound 0.1 µM"}, "[15]": {"details": "second compound 0.316 µM, first compound 0.316 µM"}, "[16]": {"details": "second compound 0.316 µM, first compound 1 µM"}, "[17]": {"details": "second compound 0.316 µM, first compound 3.16 µM"}, "[18]": {"details": "second compound 0.316 µM, first compound 10 µM"}, "[19]": {"details": "second compound 1 µM, first compound 0.0316 µM"}, "[20]": {"details": "second compound 1 µM, first compound 0.1 µM"}, "[21]": {"details": "second compound 1 µM, first compound 0.316 µM"}, "[22]": {"details": "second compound 1 µM, first compound 1 µM"}, "[23]": {"details": "second compound 1 µM, first compound 3.16 µM"}, "[24]": {"details": "second compound 1 µM, first compound 10 µM"}, "[25]": {"details": "second compound 3.16 µM, first compound 0.0316 µM"}, "[26]": {"details": "second compound 3.16 µM, first compound 0.1 µM"}, "[27]": {"details": "second compound 3.16 µM, first compound 0.316 µM"}, "[28]": {"details": "second compound 3.16 µM, first compound 1 µM"}, "[29]": {"details": "second compound 3.16 µM, first compound 3.16 µM"}, "[30]": {"details": "second compound 3.16 µM, first compound 10 µM"}, "[31]": {"details": "second compound 10 µM, first compound 0.0316 µM"}, "[32]": {"details": "second compound 10 µM, first compound 0.1 µM"}, "[33]": {"details": "second compound 10 µM, first compound 0.316 µM"}, "[34]": {"details": "second compound 10 µM, first compound 1 µM"}, "[35]": {"details": "second compound 10 µM, first compound 3.16 µM"}, "[36]": {"details": "second compound 10 µM, first compound 10 µM"}}}
{"smiles": "C=CCn1c(=O)c2cnc(Nc3ccc(N4CCN(C)CC4)cc3)nc2n1-c1cccc(C(C)(C)O)n1", "note": "+ Cc1cnc(CNC(=O)c2c(=O)c3ccc(N4CCCN(C)CC4)nc3n3c2sc2ccccc23)cn1", "values": [{"measurement": "IC50", "setting": "second compound 0.0316 µM", "result": 900, "unit": "nM"}, {"measurement": "IC50", "setting": "second compound 0.1 µM", "result": 408, "unit": "nM"}, {"measurement": "IC50", "setting": "second compound 0.316 µM", "result": 96.7, "unit": "nM"}, {"measurement": "IC50", "setting": "second compound 1 µM", "result": "< 31.6", "unit": "nM"}, {"measurement": "IC50", "setting": "second compound 3.16 µM", "result": "< 31.6", "unit": "nM"}, {"measurement": "IC50", "setting": "second compound 10 µM", "result": "< 31.6", "unit": "nM"}, {"measurement": "viability, T/C", "setting": "[1]", "result": 93.1, "unit": "%"}, {"measurement": "viability, T/C", "setting": "[2]", "result": 95.3, "unit": "%"}, {"measurement": "viability, T/C", "setting": "[3]", "result": 81, "unit": "%"}, {"measurement": "viability, T/C", "setting": "[4]", "result": 48.3, "unit": "%"}, {"measurement": "viability, T/C", "setting": "[5]", "result": 12.3, "unit": "%"}, {"measurement": "viability, T/C", "setting": "[6]", "result": 9.5, "unit": "%"}, {"measurement": "viability, T/C", "setting": "[7]", "result": 70.2, "unit": "%"}, {"measurement": "viability, T/C", "setting": "[8]", "result": 69.7, "unit": "%"}, {"measurement": "viability, T/C", "setting": "[9]", "result": 50.6, "unit": "%"}, {"measurement": "viability, T/C", "setting": "[10]", "result": 38, "unit": "%"}, {"measurement": "viability, T/C", "setting": "[11]", "result": 15.1, "unit": "%"}, {"measurement": "viability, T/C", "setting": "[12]", "result": 9.57, "unit": "%"}, {"measurement": "viability, T/C", "setting": "[13]", "result": 57.6, "unit": "%"}, {"measurement": "viability, T/C", "setting": "[14]", "result": 50.6, "unit": "%"}, {"measurement": "viability, T/C", "setting": "[15]", "result": 36.7, "unit": "%"}, {"measurement": "viability, T/C", "setting": "[16]", "result": 28.1, "unit": "%"}, {"measurement": "viability, T/C", "setting": "[17]", "result": 14.9, "unit": "%"}, {"measurement": "viability, T/C", "setting": "[18]", "result": 10.7, "unit": "%"}, {"measurement": "viability, T/C", "setting": "[19]", "result": 37.1, "unit": "%"}, {"measurement": "viability, T/C", "setting": "[20]", "result": 33.7, "unit": "%"}, {"measurement": "viability, T/C", "setting": "[21]", "result": 31.6, "unit": "%"}, {"measurement": "viability, T/C", "setting": "[22]", "result": 25.3, "unit": "%"}, {"measurement": "viability, T/C", "setting": "[23]", "result": 16.1, "unit": "%"}, {"measurement": "viability, T/C", "setting": "[24]", "result": 11.4, "unit": "%"}, {"measurement": "viability, T/C", "setting": "[25]", "result": 32, "unit": "%"}, {"measurement": "viability, T/C", "setting": "[26]", "result": 33.6, "unit": "%"}, {"measurement": "viability, T/C", "setting": "[27]", "result": 27.2, "unit": "%"}, {"measurement": "viability, T/C", "setting": "[28]", "result": 25.7, "unit": "%"}, {"measurement": "viability, T/C", "setting": "[29]", "result": 17, "unit": "%"}, {"measurement": "viability, T/C", "setting": "[30]", "result": 12, "unit": "%"}, {"measurement": "viability, T/C", "setting": "[31]", "result": 28.8, "unit": "%"}, {"measurement": "viability, T/C", "setting": "[32]", "result": 28.9, "unit": "%"}, {"measurement": "viability, T/C", "setting": "[33]", "result": 26.8, "unit": "%"}, {"measurement": "viability, T/C", "setting": "[34]", "result": 21.6, "unit": "%"}, {"measurement": "viability, T/C", "setting": "[35]", "result": 16.8, "unit": "%"}, {"measurement": "viability, T/C", "setting": "[36]", "result": 13.8, "unit": "%"}]}
{"smiles": "CC(C)(O)C1CCC(Nc2ccc3ncc(-c4cccc(C(F)(F)F)c4)n3n2)CC1", "note": "(centres undefined) + Cc1cnc(CNC(=O)c2c(=O)c3ccc(N4CCCN(C)CC4)nc3n3c2sc2ccccc23)cn1", "values": [{"measurement": "IC50", "setting": "second compound 0.0316 µM", "result": "> 10000", "unit": "nM"}, {"measurement": "IC50", "setting": "second compound 0.1 µM", "result": 1730, "unit": "nM"}, {"measurement": "IC50", "setting": "second compound 0.316 µM", "result": 124, "unit": "nM"}, {"measurement": "IC50", "setting": "second compound 1 µM", "result": "< 31.6", "unit": "nM"}, {"measurement": "IC50", "setting": "second compound 3.16 µM", "result": "< 31.6", "unit": "nM"}, {"measurement": "IC50", "setting": "second compound 10 µM", "result": "< 31.6", "unit": "nM"}, {"measurement": "viability, T/C", "setting": "[1]", "result": 104, "unit": "%"}, {"measurement": "viability, T/C", "setting": "[2]", "result": 110, "unit": "%"}, {"measurement": "viability, T/C", "setting": "[3]", "result": 103, "unit": "%"}, {"measurement": "viability, T/C", "setting": "[4]", "result": 96.1, "unit": "%"}, {"measurement": "viability, T/C", "setting": "[5]", "result": 65.3, "unit": "%"}, {"measurement": "viability, T/C", "setting": "[6]", "result": 91.2, "unit": "%"}, {"measurement": "viability, T/C", "setting": "[7]", "result": 85.9, "unit": "%"}, {"measurement": "viability, T/C", "setting": "[8]", "result": 79.5, "unit": "%"}, {"measurement": "viability, T/C", "setting": "[9]", "result": 78.2, "unit": "%"}, {"measurement": "viability, T/C", "setting": "[10]", "result": 54.5, "unit": "%"}, {"measurement": "viability, T/C", "setting": "[11]", "result": 41, "unit": "%"}, {"measurement": "viability, T/C", "setting": "[12]", "result": 49.1, "unit": "%"}, {"measurement": "viability, T/C", "setting": "[13]", "result": 55, "unit": "%"}, {"measurement": "viability, T/C", "setting": "[14]", "result": 53.4, "unit": "%"}, {"measurement": "viability, T/C", "setting": "[15]", "result": 45.5, "unit": "%"}, {"measurement": "viability, T/C", "setting": "[16]", "result": 38.8, "unit": "%"}, {"measurement": "viability, T/C", "setting": "[17]", "result": 31.7, "unit": "%"}, {"measurement": "viability, T/C", "setting": "[18]", "result": 29.7, "unit": "%"}, {"measurement": "viability, T/C", "setting": "[19]", "result": 38.5, "unit": "%"}, {"measurement": "viability, T/C", "setting": "[20]", "result": 40.9, "unit": "%"}, {"measurement": "viability, T/C", "setting": "[21]", "result": 38, "unit": "%"}, {"measurement": "viability, T/C", "setting": "[22]", "result": 31.4, "unit": "%"}, {"measurement": "viability, T/C", "setting": "[23]", "result": 27.6, "unit": "%"}, {"measurement": "viability, T/C", "setting": "[24]", "result": 25, "unit": "%"}, {"measurement": "viability, T/C", "setting": "[25]", "result": 32.5, "unit": "%"}, {"measurement": "viability, T/C", "setting": "[26]", "result": 35.4, "unit": "%"}, {"measurement": "viability, T/C", "setting": "[27]", "result": 33, "unit": "%"}, {"measurement": "viability, T/C", "setting": "[28]", "result": 26.3, "unit": "%"}, {"measurement": "viability, T/C", "setting": "[29]", "result": 17.5, "unit": "%"}, {"measurement": "viability, T/C", "setting": "[30]", "result": 23.8, "unit": "%"}, {"measurement": "viability, T/C", "setting": "[31]", "result": 29.4, "unit": "%"}, {"measurement": "viability, T/C", "setting": "[32]", "result": 27.5, "unit": "%"}, {"measurement": "viability, T/C", "setting": "[33]", "result": 28.9, "unit": "%"}, {"measurement": "viability, T/C", "setting": "[34]", "result": 21.2, "unit": "%"}, {"measurement": "viability, T/C", "setting": "[35]", "result": 8.8, "unit": "%"}, {"measurement": "viability, T/C", "setting": "[36]", "result": 0.26, "unit": "%"}]}
